From patent publication US11739101B2, “Bifunctional degraders of hematopoietic progenitor kinase and therapeutic uses thereof” (Nurix Therapeutics, Inc., priority 2020, dated 2023)

What follows are compounds tested against T1, HPK1 (Homo sapiens, UniProt Q92918) (assay: HPK1 Cellular HiBiT Degradation Assay). Conditions: HiBiT-tagged HPK1 Jurkat cells, 24 hours, 10 uM to 0.1 nM; Dmax = 100 minus lowest % HPK1 remaining vs DMSO vehicle.
T1 construct: A HiBiT tag was introduced by CRISPR on the N terminus of HPK1 in Jurkat cells; host or cells: Jurkat (ATCC TIB-152), monoclonal CRISPR HiBiT knock-in line
T1 sequence (Q92918 whole entry): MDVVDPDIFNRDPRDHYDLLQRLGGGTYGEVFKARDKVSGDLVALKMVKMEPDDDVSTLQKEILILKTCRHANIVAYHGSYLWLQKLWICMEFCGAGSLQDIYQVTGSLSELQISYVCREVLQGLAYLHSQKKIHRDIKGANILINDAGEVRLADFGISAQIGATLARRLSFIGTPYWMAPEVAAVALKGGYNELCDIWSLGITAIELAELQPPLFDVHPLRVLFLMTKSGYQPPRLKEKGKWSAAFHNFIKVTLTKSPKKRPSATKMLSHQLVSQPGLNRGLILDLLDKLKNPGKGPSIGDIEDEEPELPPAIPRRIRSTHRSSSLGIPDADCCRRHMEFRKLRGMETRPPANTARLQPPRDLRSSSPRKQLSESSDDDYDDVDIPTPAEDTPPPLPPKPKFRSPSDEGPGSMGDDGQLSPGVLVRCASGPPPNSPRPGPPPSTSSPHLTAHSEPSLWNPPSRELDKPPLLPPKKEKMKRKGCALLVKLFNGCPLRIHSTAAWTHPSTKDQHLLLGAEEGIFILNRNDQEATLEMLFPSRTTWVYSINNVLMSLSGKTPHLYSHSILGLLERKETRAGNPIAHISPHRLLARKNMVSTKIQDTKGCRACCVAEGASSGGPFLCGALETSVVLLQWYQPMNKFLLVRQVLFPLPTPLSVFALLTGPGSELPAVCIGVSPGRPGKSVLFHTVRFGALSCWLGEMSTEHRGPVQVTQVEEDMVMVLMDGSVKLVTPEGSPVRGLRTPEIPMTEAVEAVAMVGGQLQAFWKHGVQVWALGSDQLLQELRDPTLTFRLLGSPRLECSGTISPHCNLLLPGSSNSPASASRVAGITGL
Type: cell-based
Method: HiBiT HPK1 Jurkat cell lines were used to evaluate the total protein levels of HPK1 in a robust human cellular high throughput format. The level of HPK1 remaining following treatment with HPK1 CTMs is reported as Dmax (maximum degradation) achieved at 24 hours when compared to vehicle treated controls. […] These decreases were not a result of cytotoxicity measured by a parallel viability assessment (CTG). See also Table 1.
A HiBiT tag was introduced by CRISPR on the N terminus of HPK1 in Jurkat cells (ATCC® TIB-152) to allow quantitation of HPK1 protein levels in a monoclonal human cell line. Cells were plated at 1×10^6 cells/mL, 30 uL/well (3×10^4 cells/well) in complete RPMI 1640 (10% heat inactivated FBS, 1% L-glutamine) in 384-well assay plates (Corning, cat. no. 3570). HPK1 chimeric targeting molecules (CTMs) were added in an 11-point dilution series (3.16-fold) with a final assay concentration range of 10 uM to 0.1 nM. The parental Jurkat cell line, with no HiBiT insertion, was included in the assay as a background control. Cells treated with a DMSO vehicle control were used to determine the maximum signal defining 100% HPK1 in the cell. Cells were incubated for 24 hours at 37° C./5% CO2. Following incubation, 30 uL of complete Nano-Glo HiBiT Lytic Detection Reagent (Promega cat. no. N3040) was added. Cells were incubated for 10 minutes at room temperature and luminescence was read on an EnVision plate reader (Perkin Elmer, 0.1 sec per well). Parallel plates were assessed for viability using Cell Titer Glo (Promega) and read on an EnVision plate reader to ensure results were not the effect of cytotoxicity. Percent HPK1 remaining per sample was calculated as follows: […]
% HPK1 remaining values were plotted as a function of compound concentration and curves were fit using the Prism (GraphPad) equation “log(inhibitor) vs response−Variable slope (four parameters)”. Dmax values were calculated by identifying the lowest % remaining and subtracting from 100. Dmax values are provided in Table 1, wherein A>65%, 45%≤B≤65% and C<45%.
Cc1cc(F)c(Nc2nc(-c3ccc4c(c3)N([C@H]3C[C@@H](N5CCCCC5)C3)C(=O)C43CCN(C(=O)C4CCN(C(=O)[C@H]5CC[C@H](N(C)c6cccc7c6C(=O)N(C6CCC(=O)NC6=O)C7=O)CC5)CC4)CC3)cc3ncn(C(C)C)c23)cc1C(=O)NC(C)C (stereo partly drawn) [Example 66, 4-fluoro-2-methyl-5-{[6-(2-oxo-1′-{1-[(1R,4R)-4-({2-[2,6-dioxopiperidin-3-yl]-1,3-dioxo-2,3-dihydro-1H-isoindol-4-yl}(methyl)amino)cyclohexanecarbonyl]piperidine-4-carbonyl}-1-[(1s,3s)-3-(piperidin-1-yl)cyclobutyl]-1,2-dihydrospiro[indole-3,4′-piperidin]-6-yl)-3-(propan-2-yl)-3H-imidazo[4,5-c]pyridin-4-yl]amino}-N-(propan-2-yl)benzamide] was tested, and the Dmax was over 65%. Compound Cc1cc(F)c(Nc2nc(-c3ccc4c(c3)N([C@H]3C[C@@H](N5CCCCC5)C3)C(=O)C43CCN(C(=O)C4CCN(C(=O)[C@H]5CC[C@@H](Nc6cccc7c6C(=O)N(C6CCC(=O)NC6=O)C7=O)CC5)C4)CC3)cc3ncn(C(C)C)c23)cc1C(=O)NC(C)C (stereo partly drawn) [Example 27, 4-fluoro-2-methyl-5-[(6-{2-oxo-1-[(1s,3s)-3-(piperidin-1-yl)cyclobutyl]-1′-[1-[(1S,4S)-4-({2-[2,6-dioxopiperidin-3-yl]-1,3-dioxo-2,3-dihydro-1H-isoindol-4-yl}amino)cyclohexanecarbonyl]pyrrolidine-3-carbonyl]-1,2-dihydrospiro[indole-3,4′-piperidin]-6-yl}-3-(propan-2-yl)-3H-imidazo[4,5-c]pyridin-4-yl)amino]-N-(propan-2-yl)benzamide] has a Dmax of under 45%. In the case of Cc1cc(F)c(Nc2nc(-c3ccc4c(c3)N([C@H]3C[C@@H](N5CCCCC5)C3)C(=O)C43CCN(C(=O)C4CN(CC5CCN(c6cccc7c6C(=O)N(C6CCC(=O)NC6=O)C7=O)CC5)C4)CC3)cc3ncn(C(C)C)c23)cc1C(=O)NC(C)C (stereo partly drawn) [Example 33, 5-{[6-(1′-{1-[(1-{2-[2,6-dioxopiperidin-3-yl]-1,3-dioxo-2,3-dihydro-1H-isoindol-4-yl}piperidin-4-yl)methyl]azetidine-3-carbonyl}-2-oxo-1-[(1s,3s)-3-(piperidin-1-yl)cyclobutyl]-1,2-dihydrospiro[indole-3,4′-piperidin]-6-yl)-3-(propan-2-yl)-3H-imidazo[4,5-c]pyridin-4-yl]amino}-4-fluoro-2-methyl-N-(propan-2-yl)benzamide], the Dmax is reported as over 65%. Cc1cc(F)c(Nc2nc(-c3ccc4c(c3)N([C@H]3C[C@@H](N5CCCCC5)C3)C(=O)C43CCN(C(=O)c4ccc(C(=O)N5CCN(c6ccc7c(c6)C(=O)N(C6CCC(=O)NC6=O)C7=O)CC5C)cc4)CC3)cc3ncn(C(C)C)c23)cc1C(=O)NC(C)C (stereo partly drawn) [Example 72, 5-[(6-{1′-[4-(4-{2-[2,6-dioxopiperidin-3-yl]-1,3-dioxo-2,3-dihydro-1H-isoindol-5-yl}-2-methylpiperazine-1-carbonyl)benzoyl]-2-oxo-1-[(1s,3s)-3-(piperidin-1-yl)cyclobutyl]-1,2-dihydrospiro[indole-3,4′-piperidin]-6-yl}-3-(propan-2-yl)-3H-imidazo[4,5-c]pyridin-4-yl)amino]-4-fluoro-2-methyl-N-(propan-2-yl)benzamide] gave a Dmax of over 65%. For Cc1cc(F)c(Nc2nc(-c3ccc4c(c3)N([C@H]3C[C@@H](N5CCCCC5)C3)C(=O)C43CCN(C(=O)C4CCN(CC5CCN(c6cccc7c6C(=O)N(C6CCC(=O)NC6=O)C7=O)CC5)CC4)CC3)cc3ncn(C(C)C)c23)cc1C(=O)NC(C)C (stereo partly drawn) [Example 37, 5-{[6-(1′-{1-[(1-{2-[2,6-dioxopiperidin-3-yl]-1,3-dioxo-2,3-dihydro-1H-isoindol-4-yl}piperidin-4-yl)methyl]piperidine-4-carbonyl}-2-oxo-1-[(1s,3s)-3-(piperidin-1-yl)cyclobutyl]-1,2-dihydrospiro[indole-3,4′-piperidin]-6-yl)-3-(propan-2-yl)-3H-imidazo[4,5-c]pyridin-4-yl]amino}-4-fluoro-2-methyl-N-(propan-2-yl)benzamide], the Dmax was over 65%. With Cc1cc(F)c(Nc2nc(-c3ccc4c(c3)N([C@H]3C[C@@H](N5CCCCC5)C3)C(=O)C43CCN(C(=O)CN4CCC5(CC4)CN(c4ccc6c(c4)C(=O)N(C4CCC(=O)NC4=O)C6=O)C5)CC3)cc3ncn(C(C)C)c23)cc1C(=O)NC(C)C (stereo partly drawn) [Example 22, 5-[(6-{1′-[2-(2-{2-[2,6-dioxopiperidin-3-yl]-1,3-dioxo-2,3-dihydro-1H-isoindol-5-yl}-2,7-diazaspiro[3.5]nonan-7-yl)acetyl]-2-oxo-1-[(1s,3s)-3-(piperidin-1-yl)cyclobutyl]-1,2-dihydrospiro[indole-3,4′-piperidin]-6-yl}-3-(propan-2-yl)-3H-imidazo[4,5-c]pyridine-4-yl)amino]-4-fluoro-2-methyl-N-(propan-2-yl)benzamide] the Dmax was under 45%. Work on Cc1cc(F)c(Nc2nc(-c3ccc4c(c3)N([C@H]3C[C@@H](N5CCCCC5)C3)C(=O)C43CCN(C(=O)C4(C)CCN(C(=O)C5CCN(c6ccc7c(c6)C(=O)N(C6CCC(=O)NC6=O)C7=O)CC5)CC4)CC3)cc3ncn(C(C)C)c23)cc1C(=O)NC(C)C (stereo partly drawn) [Example 74, 5-[(6-{1′-[1-(1-{2-[2,6-dioxopiperidin-3-yl]-1,3-dioxoisoindol-5-yl}piperidine-4-carbonyl)-4-methylpiperidine-4-carbonyl]-2-oxo-1-[(1s,3s)-3-(piperidin-1-yl)cyclobutyl]spiro[indole-3,4′-piperidin]-6-yl}-3-isopropylimidazo[4,5-c]pyridin-4-yl)amino]-4-fluoro-N-isopropyl-2-methylbenzamide] yielded a Dmax of 45 to 65%. Compound Cc1cc(F)c(Nc2nc(-c3ccc4c(c3)N([C@H]3C[C@@H](N5CCCCC5)C3)C(=O)C43CCN(C(=O)CN4CCC5(CC4)CC(C(=O)NCCNc4cccc6c4C(=O)N(C4CCC(=O)NC4=O)C6=O)C5)CC3)cc3ncn(C(C)C)c23)cc1C(=O)NC(C)C (stereo partly drawn) [Example 46, N-(2-((2-(2,6-dioxopiperidin-3-yl)-1,3-dioxoisoindolin-4-yl)amino)ethyl)-7-(2-(6-(4-((2-fluoro-5-(isopropylcarbamoyl)-4-methylphenyl)amino)-3-isopropyl-3H-imidazo[4,5-c]pyridin-6-yl)-2-oxo-1-((1s,3s)-3-(piperidin-1-yl)cyclobutyl)spiro[indoline-3,4′-piperidin]-1′-yl)-2-oxoethyl)-7-azaspiro[3.5]nonane-2-carboxamide] has a Dmax of 45 to 65%. For Cc1cc(F)c(Nc2nc(-c3ccc4c(c3)N([C@H]3C[C@@H](N5CCCCC5)C3)C(=O)C43CCN(C(=O)c4cccc(C5CCN(c6cccc7c6C(=O)N(C6CCC(=O)NC6=O)C7=O)CC5)c4)CC3)cc3ncn(C(C)C)c23)cc1C(=O)NC(C)C (stereo partly drawn) [Example 53, 5-[(6-{1′-[3-(1-{2-[2,6-dioxopiperidin-3-yl]-1,3-dioxo-2,3-dihydro-1H-isoindol-4-yl}piperidin-4-yl)benzoyl]-2-oxo-1-[(1s,3s)-3-(piperidin-1-yl)cyclobutyl]-1,2-dihydrospiro[indole-3,4′-piperidin]-6-yl}-3-(propan-2-yl)-3H-imidazo[4,5-c]pyridin-4-yl)amino]-4-fluoro-2-methyl-N-(propan-2-yl)benzamide], the “Cellular HPK1 HiBiT: Dmax (%)” value was “B (45%≤B≤65%)”.
